The NIST ThermoML archive (doi:10.1021/je200790q)
Numbers after ± are expanded uncertainties.

Key:
[1] = 101.33 kPa, Liquid; for mass density: Vibrating tube method
[2] = molar heat capacity at constant pressure; conditions: 298.15 K; 101.33 kPa; Liquid; Drop calorimetry
[3] = refractive index (Na D-line) (dimensionless); conditions: 101.33 kPa, Liquid, Standard Abbe refractometry

CCn1cc[n+](C)c1.CS(=O)(=O)[O-] [1-ethyl-3-methylimidazolium methanesulfonate]
Conditions	mass density, [1] [kg/m3]	refractive index, [3]	viscosity, [1] [mPa·s]
278.15 K	1257.1 ± 2	–	805.33 ± 79
283.15 K	1253.3 ± 2	–	505.92 ± 42
288.15 K	1249.5 ± 2	–	336.04 ± 23
288.37 K	–	1.49823 ± 0.00053	–
293.15 K	1245.9 ± 2	–	232.44 ± 13
293.28 K	–	1.49682 ± 0.00053	–
298.15 K	1242.4 ± 2	–	166.59 ± 7.4
298.19 K	–	1.49542 ± 0.00053	–
303.1 K	–	1.49399 ± 0.00053	–
303.15 K	1239 ± 2	–	123.14 ± 4.2
308.01 K	–	1.49254 ± 0.00053	–
308.15 K	1235.6 ± 2	–	93.48 ± 2.3
312.91 K	–	1.49114 ± 0.00053	–
313.15 K	1232.2 ± 2	–	72.64 ± 1.3
318.15 K	1228.8 ± 2	–	57.62 ± 0.66
323.15 K	1225.5 ± 2	–	46.54 ± 0.59
328.15 K	1222.2 ± 2	–	38.2 ± 0.47
333.15 K	1218.9 ± 2	–	31.81 ± 0.38
338.15 K	1215.6 ± 2	–	26.84 ± 0.32
343.15 K	1212.3 ± 2	–	22.9 ± 0.27
348.15 K	1209.1 ± 2	–	19.75 ± 0.23
353.15 K	1205.9 ± 2	–	17.19 ± 0.2
358.15 K	1202.8 ± 2	–	15.08 ± 0.17
363.15 K	1199.7 ± 2	–	13.33 ± 0.15

Conditions	molar heat capacity at constant pressure [J/K/mol]
[2]	345.52 ± 10

CCn1cc[n+](C)c1.Cc1ccc(S(=O)(=O)[O-])cc1 [1-ethyl-3-methylimidazolium 4-methylbenzenesulfonate]
Conditions	mass density, [1] [kg/m3]	refractive index, [3]	viscosity, [1] [mPa·s]
303.15 K	1223.4 ± 2	–	1417.4 ± 170
308.15 K	1220 ± 2	–	842.45 ± 85
313.15 K	1216.6 ± 2	–	531.73 ± 45
318.15 K	1213.2 ± 2	–	351.97 ± 25
322.73 K	–	1.53844 ± 0.00054	–
323.15 K	1210 ± 2	–	242.85 ± 14
325.68 K	–	1.53757 ± 0.00053	–
327.64 K	–	1.53703 ± 0.00052	–
328.15 K	1206.8 ± 2	–	173.69 ± 8
329.61 K	–	1.53649 ± 0.00052	–
332.55 K	–	1.5357 ± 0.00053	–
333.15 K	1203.7 ± 2	–	128.18 ± 4.5
334.52 K	–	1.53509 ± 0.00053	–
336.48 K	–	1.53461 ± 0.00051	–
338.15 K	1200.6 ± 2	–	97.21 ± 2.6
338.44 K	–	1.53409 ± 0.00052	–
340.41 K	–	1.53356 ± 0.00052	–
342.37 K	–	1.53304 ± 0.00052	–
343.15 K	1197.6 ± 2	–	75.51 ± 1.4
348.15 K	1194.5 ± 2	–	59.9 ± 0.73
353.15 K	1191.5 ± 2	–	48.42 ± 0.61
358.15 K	1188.5 ± 2	–	39.81 ± 0.49
363.15 K	1185.5 ± 2	–	33.22 ± 0.42

CC(=O)[O-].CCn1cc[n+](C)c1 [1-ethyl-3-methylimidazolium acetate]
Conditions	mass density, [1] [kg/m3]	refractive index, [3]	viscosity, [1] [mPa·s]
278.15 K	1112.4 ± 2	–	723.62 ± 68
283.15 K	1108.9 ± 2	–	451.35 ± 36
288.15 K	1105.6 ± 2	–	295.7 ± 19
288.37 K	–	1.50371 ± 0.00053	–
293.15 K	1102.4 ± 2	–	202.29 ± 10
293.28 K	–	1.50233 ± 0.00053	–
298.15 K	1099.3 ± 2	–	143.61 ± 5.7
298.19 K	–	1.50091 ± 0.00053	–
303.1 K	–	1.49949 ± 0.00053	–
303.15 K	1096.2 ± 2	–	105.3 ± 3.1
308.01 K	–	1.49807 ± 0.00053	–
308.15 K	1093.6 ± 2	–	79.32 ± 1.6
312.91 K	–	1.49666 ± 0.00053	–
313.15 K	1090 ± 2	–	61.33 ± 0.82
318.15 K	1087 ± 2	–	48.41 ± 0.65
323.15 K	1084 ± 2	–	38.95 ± 0.5
328.15 K	1081 ± 2	–	31.87 ± 0.4
333.15 K	1078 ± 2	–	26.47 ± 0.32
338.15 K	1075 ± 2	–	22.27 ± 0.27
343.15 K	1072.1 ± 2	–	18.96 ± 0.22
348.15 K	1069.2 ± 2	–	16.31 ± 0.19
353.15 K	1066.3 ± 2	–	14.16 ± 0.16
358.15 K	1063.4 ± 2	–	12.41 ± 0.14
363.15 K	1060.6 ± 2	–	10.95 ± 0.13

Conditions	molar heat capacity at constant pressure [J/K/mol]
[2]	321.9 ± 9.7

CCn1cc[n+](C)c1.COP(=O)([O-])OC [1-ethyl-3-methylimidazolium dimethylphosphate]
Conditions	mass density, [1] [kg/m3]	refractive index, [3]	viscosity, [1] [mPa·s]
298.19 K	–	1.48175 ± 0.00051	–
303.1 K	–	1.4805 ± 0.00052	–
303.15 K	1213.9 ± 2	–	192.68 ± 9.3
308.01 K	–	1.47909 ± 0.00053	–
308.15 K	1210.5 ± 2	–	144.32 ± 5.6
312.91 K	–	1.47771 ± 0.00053	–
313.15 K	1207.1 ± 2	–	110.51 ± 3.3
317.82 K	–	1.47636 ± 0.00052	–
318.15 K	1203.8 ± 2	–	86.32 ± 1.9
322.73 K	–	1.47511 ± 0.00052	–
323.15 K	1200.5 ± 2	–	68.64 ± 1
327.64 K	–	1.47384 ± 0.00052	–
328.15 K	1197.2 ± 2	–	55.46 ± 0.58
333.15 K	1193.9 ± 2	–	45.47 ± 0.56
338.15 K	1190.6 ± 2	–	37.78 ± 0.46
343.15 K	1187.4 ± 2	–	31.76 ± 0.38
348.15 K	1184.2 ± 2	–	26.99 ± 0.31
353.15 K	1181 ± 2	–	23.17 ± 0.27
358.15 K	1177.8 ± 2	–	20.07 ± 0.23
363.15 K	1174.7 ± 2	–	17.53 ± 0.2

Conditions	molar heat capacity at constant pressure [J/K/mol]
[2]	411.78 ± 12
